A short description of data set [1]: Serum Lutein concentration by HPLC during 24 weeks of daily capsule ingestion (bioavailability evaluation). The format is in vivo. How it is done: The evaluation was carried out over a period of 24 weeks with three (3) groups of subjects that ingested daily one gelatin capsule containing the following: • The first group ingested a capsule containing a dispersion of 20 mg of Micro-Mic™ in vegetable oil. • The second group ingested a gelatin capsule containing a dispersion of 20 mg of commercial crystalline Lutein dispersed in vegetable oil. • The third group ingested a gelatin capsule containing only vegetable oil (placebo). The three gelatin capsules were all the same color (dark brown). Blood samples were collected weekly and the serum analyzed for Lutein by HPLC, and the concentration was reported as (ng/ul) of Lutein The results obtained are shown for Baseline date, week 6th, week 12^t1, week 18th, and week 24th. The ratio between the concentrations at each week was divided by the Baseline concentration. The average of those ratios is reported at the base of each column.

Data set [2] can be described thus: Rate of increase in MPOD (Macular Pigment Optical Density) during 24 weeks of daily capsule ingestion. Type of data set: in vivo. Particulars: 20 mg daily capsule. How it is done:
The evaluation was carried out over a period of 24 weeks with three (3) groups of subjects that ingested daily one gelatin capsule containing the following: • The first group ingested a capsule containing a dispersion of 20 mg of Micro-Mic™ in vegetable oil. • The second group ingested a gelatin capsule containing a dispersion of 20 mg of commercial crystalline Lutein dispersed in vegetable oil. • The third group ingested a gelatin capsule containing only vegetable oil (placebo). The three gelatin capsules were all the same color (dark brown).
Rate of Increase in MPOD in Absorbance Units Per Week
The serum results are a better indicator of bioavailability than the macular pigment results. It is well established that some subjects are serum responders, but macular pigment non-responders. However in this evaluation the Micro-Mic™ group mean MPOD (Macular Pigment Optical Density) exceeds that of the crystalline Lutein subjects by approximately 14%.

“And” between values parts separate entries of the source, which are not always exact repeats. Identical values can stand only once.

On to `CC1=C[C@H](O)CC(C)(C)[C@H]1/C=C/C(C)=C/C=C/C(C)=C/C=C/C=C(C)/C=C/C=C(C)/C=C/C1=C(C)C[C@@H](O)CC1(C)C` [Lutein], for which the “Week 6/Baseline, group average” value in data set [1] (average of the subjects' ratios, week 6) is on record as 4.964. For the same compound, the “Week 12/Baseline, group average” value in data set [1] (average of the subjects' ratios, week 12) worked out at 4.492. In addition, in data set [1] (average of the subjects' ratios, week 18), the “Week 18/Baseline, group average” value amounted to 4.345. In addition, the “Week 24/Baseline, group average” value in data set [1] (average of the subjects' ratios, week 24) is 3.931. Also, in data set [1] (average of the subjects' ratios, weeks 6-24), the “Week 6-24/Baseline, group average” value amounted to 4.433. In addition, the concentration at 6 weeks in data set [1] (human, serum, oral, 20 mg, serum, group average, week 6, 20 mg daily capsule in vegetable oil, read-out: Week 6 Lutein Conc. B, group average) turned out to be 632 ng/mL. For the same compound, the concentration at 12 weeks in data set [1] (human, serum, oral, 20 mg, serum, group average, week 12, 20 mg daily capsule in vegetable oil, read-out: Week 12 Lutein Conc. C, group average) worked out at 577 ng/mL. Besides, the concentration at 18 weeks in data set [1] (human, serum, oral, 20 mg, serum, group average, week 18, 20 mg daily capsule in vegetable oil, read-out: Week 18 Lutein Conc. D, group average) was 545 ng/mL. For the same compound, in data set [1] (human, serum, oral, 20 mg, serum, group average, week 24, 20 mg daily capsule in vegetable oil, read-out: Week 24 Lutein Conc. E, group average), the concentration at 24 weeks turned out to be 458 ng/mL. For the same compound, the “Week 6/Baseline” value in data set [1] (ratio of serum Lutein conc., individual subject, week 6) is 3.934 and 4.235 and 3.335 and 4.201 and 5.425 and 2.914 and 8.047 and 8.611 and 2.624 and 6.314. Further, the “Week 12/Baseline” value in data set [1] (ratio of serum Lutein conc., individual subject, week 12) is 4.398 and 3.871 and 2.494 and 5.926 and 5.242 and 4.491 and 3.439 and 5.491 and 3.867 and 5.704. Besides, the “Week 18/Baseline” value in data set [1] (ratio of serum Lutein conc., individual subject, week 18) was 3.608 and 2.273 and 2.296 and 4.321 and 11.494 and 2.395 and 3.171 and 7.268 and 2.283 and 4.335. In addition, the “Week 24/Baseline” value in data set [1] (ratio of serum Lutein conc., individual subject, week 24) was 2.721 and 1.327 and 1.910 and 8.589 and 4.965 and 2.051 and 2.296 and 5.931 and 4.958 and 4.563. Besides, the “Week 6-24/Baseline” value in data set [1] (ratio of serum Lutein conc., individual subject, weeks 6-24) was 3.665 and 2.927 and 2.509 and 5.759 and 6.782 and 2.963 and 4.238 and 6.825 and 3.433 and 5.229. Further, the “Baseline Lutein Conc. A, group average” value in data set [1] (serum, group average, baseline, group later given 20 mg daily capsule) worked out at 0.128 ng/µL. Further, in data set [1] (serum, individual subject, baseline, group later given 20 mg daily capsule), the “Baseline Lutein Conc. A” value was 0.268 ng/ul and 0.108 ng/ul (3×) and 0.112 ng/ul and 0.063 ng/ul and 0.151 ng/ul and 0.119 ng/ul and 0.082 ng/ul and 0.164 ng/ul. Also, the “Week 6 Lutein Conc. B” value in data set [1] (serum, individual subject, week 6, 20 mg daily capsule in vegetable oil) is 1.054 ng/µL and 0.457 ng/µL and 0.372 ng/µL and 0.265 ng/µL and 0.584 ng/µL and 0.439 ng/µL and 0.867 ng/µL and 1.028 ng/µL and 0.215 ng/µL and 1.035 ng/µL. Besides, the “Week 12 Lutein Conc. C” value in data set [1] (serum, individual subject, week 12, 20 mg daily capsule in vegetable oil) was 1.179 ng/µL and 0.418 ng/µL and 0.278 ng/µL and 0.373 ng/µL and 0.564 ng/µL and 0.677 ng/µL and 0.370 ng/µL and 0.655 ng/µL and 0.317 ng/µL and 0.935 ng/µL. Also, in data set [1] (serum, individual subject, week 18, 20 mg daily capsule in vegetable oil), the “Week 18 Lutein Conc. D” value is 0.967 ng/µL and 0.246 ng/µL and 0.256 ng/µL and 0.272 ng/µL and 1.238 ng/µL and 0.361 ng/µL and 0.341 ng/µL and 0.867 ng/µL and 0.187 ng/µL and 0.711 ng/µL. For the same compound, in data set [1] (serum, individual subject, week 24, 20 mg daily capsule in vegetable oil), the “Week 24 Lutein Conc. E” value is 0.729 ng/µL and 0.143 ng/µL and 0.213 ng/µL and 0.541 ng/µL and 0.535 ng/µL and 0.309 ng/µL and 0.247 ng/µL and 0.708 ng/µL and 0.407 ng/µL and 0.748 ng/µL. In data set [2] (group maximum), the “Rate of Increase in MPOD, Max” value was 5.100E−03 Absorbance Units Per Week. Besides, the “Rate of Increase in MPOD, Mean” value in data set [2] (group mean) is 1.690E−03 Absorbance Units Per Week. Besides, in data set [2] (group median), the “Rate of Increase in MPOD, Median” value amounted to 1.550E−03 Absorbance Units Per Week. The “Rate of Increase in MPOD, Min” value in data set [2] (group minimum) is listed as −8.000E−04 Absorbance Units Per Week.

These data come from patent US20120157547A1, “COMPOSITIONS AND APPLICATIONS OF CAROTENOIDS OF IMPROVED ABSORPTION AND BIOAVAILABILITY” (priority 2010, published 2012).
